Data on 18 compounds can be found in patent US20230002375A1, “HYDROPYRAZINO[1,2-B]ISOQUINOLINE COMPOUNDS FOR THE TREATMENT OF AUTOIMMUNE DISEASE” (Hoffmann-La Roche Inc., priority 2019, published 2023).

Structures are written as SMILES.

The target of the assay is T1, human TLR9 (Homo sapiens, UniProt Q9NR96).
T1 sequence (Q9NR96 26-1032): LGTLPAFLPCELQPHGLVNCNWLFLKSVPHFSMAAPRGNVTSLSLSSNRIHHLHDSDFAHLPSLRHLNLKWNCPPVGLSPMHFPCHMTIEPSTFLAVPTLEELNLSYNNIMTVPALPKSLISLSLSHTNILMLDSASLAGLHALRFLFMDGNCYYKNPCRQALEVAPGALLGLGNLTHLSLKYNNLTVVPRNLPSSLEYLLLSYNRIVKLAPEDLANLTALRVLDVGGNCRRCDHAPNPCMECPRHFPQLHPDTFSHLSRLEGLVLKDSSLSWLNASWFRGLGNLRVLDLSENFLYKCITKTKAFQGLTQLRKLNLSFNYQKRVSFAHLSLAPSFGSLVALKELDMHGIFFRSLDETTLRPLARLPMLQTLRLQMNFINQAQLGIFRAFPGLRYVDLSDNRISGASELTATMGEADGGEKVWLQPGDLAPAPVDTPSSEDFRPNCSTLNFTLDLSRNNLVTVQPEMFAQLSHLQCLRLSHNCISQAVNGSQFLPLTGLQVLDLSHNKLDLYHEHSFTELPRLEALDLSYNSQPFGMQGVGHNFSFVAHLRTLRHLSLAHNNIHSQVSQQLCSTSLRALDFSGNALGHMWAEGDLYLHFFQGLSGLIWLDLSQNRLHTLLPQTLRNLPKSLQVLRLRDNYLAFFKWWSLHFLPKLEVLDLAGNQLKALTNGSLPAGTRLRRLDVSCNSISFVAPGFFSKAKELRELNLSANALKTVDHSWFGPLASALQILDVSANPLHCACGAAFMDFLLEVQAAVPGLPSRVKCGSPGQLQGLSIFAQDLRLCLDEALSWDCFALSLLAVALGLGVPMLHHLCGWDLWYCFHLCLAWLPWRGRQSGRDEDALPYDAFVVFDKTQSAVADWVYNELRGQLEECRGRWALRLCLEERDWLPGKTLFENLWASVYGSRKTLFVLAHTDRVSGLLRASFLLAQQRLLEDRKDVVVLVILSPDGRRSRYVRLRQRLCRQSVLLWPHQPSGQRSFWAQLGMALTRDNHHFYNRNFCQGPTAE
The assay can be described thus: HEK293-Blue-hTLR-9 cells assay (SEAP reporter, ODN2006 stimulation). The assay is classed as cell-based. As to conditions: HEK293-Blue-hTLR9 cells, ODN2006, 20 hrs incubation; read-out: HEK/hTLR9 IC50. As for the experimental part: The following tests were carried out in order to determine the activity of the compounds of formula (I), (Ia) or (Ib) in HEK293-Blue-hTLR-7/8/9 cells assay.
HEK293-Blue-hTLR-9 Cells Assay:
A stable HEK293-Blue-hTLR-9 cell line was purchased from InvivoGen (Cat.#: hkb-htlr9, San Diego, Calif., USA). These cells were originally designed for studying the stimulation of human TLR9 by monitoring the activation of NF-κB. A SEAP (secreted embryonic alkaline phosphatase) reporter gene was placed under the control of the IFN-β minimal promoter fused to five NF-κB and AP-1-binding sites. The SEAP was induced by activating NF-κB and AP-1 via stimulating HEK-Blue hTLR9 cells with TLR9 ligands. Therefore the reporter expression was declined by TLR9 antagonist under the stimulation of a ligand, such as ODN2006 (Cat.#: tlrl-2006-1, Invivogen, San Diego, Calif., USA), for incubation of 20 hrs. The cell culture supernatant SEAP reporter activity was determined using QUANTI-Blue™ kit (Cat.#: rep-qb1, Invivogen, San Diego, Calif., USA) at a wavelength of 640 nm, a detection medium that turns purple or blue in the presence of alkaline phosphatase.
HEK293-Blue-hTLR9 cells were incubated at a density of 250,000-450,000 cells/mL in a volume of 170 μL in a 96-well plate in Dulbecco's Modified Eagle's medium (DMEM) containing 4.5 g/L glucose, 50 U/mL penicillin, […], 2 mM L-glutamine, 10% (v/v) heat-inactivated fetal bovine serum with addition of 20 μL test compound in a serial dilution in the presence of final DMSO at 1% and 10 μL of 20 uM ODN2006 in above DMEM, perform incubation under 37° C. in a CO2 incubator for 20 hrs. Then 20 μL of the supernatant from each well was incubated with 180 μL Quanti-blue substrate solution at 37° C. for 2 h and the absorbance was read at 620-655 nm using a spectrophotometer. The signaling pathway that TLR9 activation leads to downstream NF-κB activation has been widely accepted, and therefore similar reporter assay was modified for evaluating TLR9 antagonist.

On to `C[C@@H]1CN(c2ccc(C#N)c3ncccc23)C[C@@H]2Cc3cc(N4C[C@@H]5CNCCN5C4=O)ccc3CN21` (single isomer, unassigned) [Example 17A], for which the IC50 is 0.107 µM.

Consider `C[C@@H]1CN(c2ccc(C#N)c3ncccc23)C[C@@H]2Cc3cc(N4C[C@H]5CNCCN5C4=O)ccc3CN21` (single isomer, unassigned) [Example 17B], for which the IC50 came to 0.106 µM.

`C[C@@H]1CN(c2ccc(C#N)c3ncccc23)C[C@@H]2Cc3cc(N4CC5NCCOC5C4)ccc3CN21` (stereo in doubt) [Example 10, 5-[(4R,11aS)-9-[(4aS,7aS)-3,4,4a,5,7,7a-hexahydro-2H-pyrrolo[3,4-b][1,4]oxazin-6-yl]-4-methyl-1,3,4,6,11,11a-hexahydropyrazino[1,2-b]isoquinolin-2-yl]quinoline-8-carbonitrile]: the IC50 was determined as 0.0782 µM.

Consider `C[C@@H]1CN(c2ccc(C#N)c3ncccc23)C[C@@H]2Cc3ccc(N4CCOCC(N)C4)cc3CN21` (stereo partly drawn) [Example 1, 5-[(4R,11aS)-8-(6-amino-1,4-oxazepan-4-yl)-4-methyl-1,3,4,6,11,11a-hexahydropyrazino[1,2-b]isoquinolin-2-yl]quinoline-8-carbonitrile], for which the IC50 is 0.0646 µM.

With `C[C@@H]1CN(c2ccc(C#N)c3ncccc23)C[C@@H]2Cc3ccc(NCCN4CC[C@H](O)C4)cc3CN21` [Example 2, 5-[(4R,11aS)-8-[2-[(3S)-3-hydroxypyrrolidin-1-yl]ethylamino]-4-methyl-1,3,4,6,11,11a-hexahydropyrazino[1,2-b]isoquinolin-2-yl]quinoline-8-carbonitrile], the IC50 was found to be 0.0445 µM.

In the case of `C[C@@H]1CN(c2ccc(C#N)c3ncccc23)C[C@@H]2Cc3ccc(OCCN(C)C)cc3CN21` [Example 5, 5-[(4R,11aS)-8-[2-(dimethylamino)ethoxy]-4-methyl-1,3,4,6,11,11a-hexahydropyrazino[1,2-b]isoquinolin-2-yl]quinoline-8-carbonitrile], the IC50 was determined as 0.0963 µM.

Consider `C[C@@H]1CN(c2ccc(C#N)c3ncccc23)C[C@@H]2Cc3cc(N[C@@H]4CNC[C@@H]4F)ccc3CN21` [Example 6, 5-[(4R,11aS)-4-methyl-9-[[(3R,4S)-4-fluoropyrrolidin-3-yl]amino]-1,3,4,6,11,11a-hexahydropyrazino[1,2-b]isoquinolin-2-yl]quinoline-8-carbonitrile], for which the IC50 is 0.106 µM.

For `CO[C@H]1CNC[C@H]1Nc1ccc2c(c1)C[C@H]1CN(c3ccc(C#N)c4ncccc34)C[C@@H](C)N1C2` [Example 7, 5-[(4R,11aS)-9-[[(3R,4S)-4-methoxypyrrolidin-3-yl]amino]-4-methyl-1,3,4,6,11,11a-hexahydropyrazino[1,2-b]isoquinolin-2-yl]quinoline-8-carbonitrile], the IC50 stood at 0.109 µM.

Turning to `C[C@@H]1CN(c2ccc(C#N)c3ncccc23)C[C@@H]2Cc3cc(N4C[C@@H](F)[C@@H](N)C4)ccc3CN21` [Example 8, 5-[(4R,11aS)-9-[(3S,4R)-3-amino-4-fluoro-pyrrolidin-1-yl]-4-methyl-1,3,4,6,11,11a-hexahydropyrazino[1,2-b]isoquinolin-2-yl]quinoline-8-carbonitrile], the IC50 is 0.0853 µM.

`CO[C@H]1CN(c2ccc3c(c2)C[C@H]2CN(c4ccc(C#N)c5ncccc45)C[C@@H](C)N2C3)C[C@H]1N` [Example 9, 5-[(4R,11aS)-9-[(3R,4S)-3-amino-4-methoxy-pyrrolidin-1-yl]-4-methyl-1,3,4,6,11,11a-hexahydropyrazino[1,2-b]isoquinolin-2-yl]quinoline-8-carbonitrile]: the IC50 was 0.139 µM.

Take `C[C@@H]1CN(c2ccc(C#N)c3ncccc23)C[C@@H]2Cc3cc(OCCN(C)C)ccc3CN21` [Example 11, 5-[(4R,11aS)-9-[2-(dimethylamino)ethoxy]-4-methyl-1,3,4,6,11,11a-hexahydropyrazino[1,2-b]isoquinolin-2-yl]quinoline-8-carbonitrile]: the IC50 was determined as 0.081 µM.

As for `C[C@@H]1CN(c2ccc(C#N)c3ncccc23)C[C@@H]2Cc3cc(OC[C@@H]4CCN4)ccc3CN21` [Example 12, 5-[(4R,11aS)-9-[[(2S)-azetidin-2-yl]methoxy]-4-methyl-1,3,4,6,11,11a-hexahydropyrazino[1,2-b]isoquinolin-2-yl]quinoline-8-carbonitrile], the IC50 stood at 0.116 µM.

In the case of `C[C@@H]1CN(c2ccc(C#N)c3ncccc23)C[C@@H]2Cc3cc(N4CCN(C(=O)C(C)(C)N)CC4)ccc3CN21` [Example 13, 5-[(4R,11aS)-9-[4-(2-amino-2-methyl-propanoyl)piperazin-1-yl]-4-methyl-1,3,4,6,11,11a-hexahydropyrazino[1,2-b]isoquinolin-2-yl]quinoline-8-carbonitrile], the IC50 came to 0.0856 µM.

For the compound `C[C@@H]1CN(c2ccc(C#N)c3ncccc23)C[C@@H]2Cc3cc(N4CCN(C(=O)[C@]5(C)CCCN5)CC4)ccc3CN21` [Example 14, 5-[(4R,11aS)-4-methyl-9-[4-[(2S)-2-methylpyrrolidine-2-carbonyl]piperazin-1-yl]-1,3,4,6,11,11a-hexahydropyrazino[1,2-b]isoquinolin-2-yl]quinoline-8-carbonitrile], the IC50 came to 0.254 µM.

For the compound `C[C@@H]1CN(c2ccc(C#N)c3ncccc23)C[C@@H]2Cc3cc(N4C[C@@H]5C[C@H]4CN5C(=O)C(C)(C)N)ccc3CN21` [Example 15, 5-[(4R,11aS)-9-[(1S,4S)-5-(2-amino-2-methyl-propanoyl)-2,5-diazabicyclo[2.2.1]heptan-2-yl]-4-methyl-1,3,4,6,11,11a-hexahydropyrazino[1,2-b]isoquinolin-2-yl]quinoline-8-carbonitrile], the IC50 was 0.125 µM.

As for `C[C@@H]1CN(c2ccc(C#N)c3ncccc23)C[C@@H]2Cc3cc(N4CC(N)CC4=O)ccc3CN21` (stereo partly drawn) [Example 16, 5-[(4R,11aS)-9-(4-amino-2-oxo-pyrrolidin-1-yl)-4-methyl-1,3,4,6,11,11a-hexahydropyrazino[1,2-b]isoquinolin-2-yl]quinoline-8-carbonitrile], the IC50 was determined as 0.125 µM.

Turning to `C[C@@H]1CN(c2ccc(C#N)c3ncccc23)C[C@@H]2Cc3cc(N4CC5CCNCC5C4=O)ccc3CN21` (stereo partly drawn) [Example 18, 5-[(4R,11aS)-4-methyl-9-(3-oxo-3a,4,5,6,7,7a-hexahydro-1H-pyrrolo[3,4-c]pyridin-2-yl)-1,3,4,6,11,11a-hexahydropyrazino[1,2-b]isoquinolin-2-yl]quinoline-8-carbonitrile], the IC50 came out at 0.0646 µM.

For the compound `C[C@@H]1CN(c2ccc(C#N)c3ncccc23)C[C@@H]2Cc3cc(N4CC5CNCCC5C4=O)ccc3CN21` (stereo partly drawn) [Example 19, 5-[(4R,11aS)-4-methyl-9-(1-oxo-3a,4,5,6,7,7a-hexahydro-3H-pyrrolo[3,4-c]pyridin-2-yl)-1,3,4,6,11,11a-hexahydropyrazino[1,2-b]isoquinolin-2-yl]quinoline-8-carbonitrile], the IC50 amounted to 0.0445 µM.
